# The supplement of paper PMC10307832
# Assays:
# Experiment in all cases: relative viability (nuclei count vs DMSO), 5 days (fraction); higher = more cells survive
# COR-L23 = tested on: COR-L23
# In short: (§1)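 Lung cancer cell lines in 1536-well plates got either a single drug or a fixed anchor-drug dose together with five library-drug doses (not always all listed) in √10 steps, by pin tool, on the day after seeding. Nuclei were counted after 5 days, and relative viability is the treated-to-vehicle ratio of nuclei counts. Values are medians of duplicate plates.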
# EMC-BAC-2 = tested on: EMC-BAC-2
# In short: as §1
# EPLC-272H = tested on: EPLC-272H
# In short: as §1
# H3255 = tested on: H3255
# In short: as §1
# HCC-44 = tested on: HCC-44
# In short: as §1
# HCC-827 = tested on: HCC-827
# In short: as §1
# LU99A = tested on: LU99A
# In short: as §1
# NCI-H1395 = tested on: NCI-H1395
# In short: as §1
# NCI-H1563 = tested on: NCI-H1563
# In short: as §1
# NCI-H1651 = tested on: NCI-H1651
# In short: as §1
# NCI-H1793 = tested on: NCI-H1793
# In short: as §1
# NCI-H1944 = tested on: NCI-H1944
# In short: as §1
# NCI-H2023 = tested on: NCI-H2023
# In short: as §1
# NCI-H2085 = tested on: NCI-H2085
# In short: as §1
# NCI-H2087 = tested on: NCI-H2087
# In short: as §1
# NCI-H2405 = tested on: NCI-H2405
# In short: as §1
# NCI-H520 = tested on: NCI-H520
# In short: as §1
# NCI-H650 = tested on: NCI-H650
# In short: as §1
# NCI-H838 = tested on: NCI-H838
# In short: as §1
# SK-MES-1 = tested on: SK-MES-1
# In short: as §1
smiles,measurement,setting,value
Nc1ccn([C@@H]2O[C@H](CO)[C@@H](O)[C@@H]2O)c(=O)n1 [Cytarabine] + CS(=O)(=O)CCNCc1ccc(-c2ccc3ncnc(Nc4ccc(OCc5cccc(F)c5)c(Cl)c4)c3c2)o1 [Lapatinib] (partner 2 µM),relative viability,COR-L23; first compound 0.005 µM,0.892
same,relative viability,COR-L23; first compound 0.01581 µM,0.668
same,relative viability,COR-L23; first compound 0.05 µM,0.921
same,relative viability,COR-L23; first compound 0.1581 µM,0.235
same,relative viability,COR-L23; first compound 0.5 µM,0.138
same,relative viability,EMC-BAC-2; first compound 0.005 µM,0.857
same,relative viability,EMC-BAC-2; first compound 0.01581 µM,0.85
same,relative viability,EMC-BAC-2; first compound 0.05 µM,0.763
same,relative viability,EMC-BAC-2; first compound 0.1581 µM,0.283
same,relative viability,EMC-BAC-2; first compound 0.5 µM,0.287
same,relative viability,EPLC-272H; first compound 0.005 µM,0.717
same,relative viability,EPLC-272H; first compound 0.01581 µM,0.756
same,relative viability,EPLC-272H; first compound 0.05 µM,0.592
same,relative viability,EPLC-272H; first compound 0.1581 µM,0.315
same,relative viability,EPLC-272H; first compound 0.5 µM,0.417
same,relative viability,H3255; first compound 0.005 µM,0.268
same,relative viability,H3255; first compound 0.01581 µM,0.226
same,relative viability,H3255; first compound 0.05 µM,0.158
same,relative viability,H3255; first compound 0.1581 µM,0.197
same,relative viability,H3255; first compound 0.5 µM,0.188
same,relative viability,HCC-44; first compound 0.005 µM,0.93
same,relative viability,HCC-44; first compound 0.01581 µM,0.935
same,relative viability,HCC-44; first compound 0.05 µM,0.984
same,relative viability,HCC-44; first compound 0.1581 µM,0.532
same,relative viability,HCC-44; first compound 0.5 µM,0.431
same,relative viability,HCC-827; first compound 0.005 µM,0.192
same,relative viability,HCC-827; first compound 0.01581 µM,0.16
same,relative viability,HCC-827; first compound 0.05 µM,0.141
same,relative viability,HCC-827; first compound 0.1581 µM,0.136
same,relative viability,HCC-827; first compound 0.5 µM,0.125
same,relative viability,LU99A; first compound 0.005 µM,0.974
same,relative viability,LU99A; first compound 0.01581 µM,0.968
same,relative viability,LU99A; first compound 0.05 µM,1.02
same,relative viability,LU99A; first compound 0.1581 µM,0.988
same,relative viability,LU99A; first compound 0.5 µM,0.938
same,relative viability,NCI-H1395; first compound 0.005 µM,0.935
same,relative viability,NCI-H1395; first compound 0.01581 µM,0.749
same,relative viability,NCI-H1395; first compound 0.05 µM,0.581
same,relative viability,NCI-H1395; first compound 0.1581 µM,0.461
same,relative viability,NCI-H1395; first compound 0.5 µM,0.355
same,relative viability,NCI-H1563; first compound 0.005 µM,0.935
same,relative viability,NCI-H1563; first compound 0.01581 µM,0.859
same,relative viability,NCI-H1563; first compound 0.05 µM,0.497
same,relative viability,NCI-H1563; first compound 0.1581 µM,0.926
same,relative viability,NCI-H1563; first compound 0.5 µM,0.708
same,relative viability,NCI-H1651; first compound 0.005 µM,0.801
same,relative viability,NCI-H1651; first compound 0.01581 µM,0.845
same,relative viability,NCI-H1651; first compound 0.05 µM,1.02
same,relative viability,NCI-H1651; first compound 0.1581 µM,0.421
same,relative viability,NCI-H1651; first compound 0.5 µM,0.288
same,relative viability,NCI-H1793; first compound 0.005 µM,0.846
same,relative viability,NCI-H1793; first compound 0.01581 µM,0.478
same,relative viability,NCI-H1793; first compound 0.05 µM,0.656
same,relative viability,NCI-H1793; first compound 0.1581 µM,0.451
same,relative viability,NCI-H1793; first compound 0.5 µM,0.338
same,relative viability,NCI-H1944; first compound 0.005 µM,0.603
same,relative viability,NCI-H1944; first compound 0.01581 µM,0.336
same,relative viability,NCI-H1944; first compound 0.05 µM,0.318
same,relative viability,NCI-H1944; first compound 0.1581 µM,0.177
same,relative viability,NCI-H1944; first compound 0.5 µM,0.153
same,relative viability,NCI-H2023; first compound 0.005 µM,0.515
same,relative viability,NCI-H2023; first compound 0.01581 µM,0.224
same,relative viability,NCI-H2023; first compound 0.05 µM,0.144
same,relative viability,NCI-H2023; first compound 0.1581 µM,0.0848
same,relative viability,NCI-H2023; first compound 0.5 µM,0.0542
same,relative viability,NCI-H2085; first compound 0.005 µM,0.735
same,relative viability,NCI-H2085; first compound 0.01581 µM,0.725
same,relative viability,NCI-H2085; first compound 0.05 µM,0.666
same,relative viability,NCI-H2085; first compound 0.1581 µM,0.622
same,relative viability,NCI-H2085; first compound 0.5 µM,0.374
same,relative viability,NCI-H2087; first compound 0.005 µM,1.04
same,relative viability,NCI-H2087; first compound 0.01581 µM,0.967
same,relative viability,NCI-H2087; first compound 0.05 µM,0.894
same,relative viability,NCI-H2087; first compound 0.1581 µM,0.678
same,relative viability,NCI-H2087; first compound 0.5 µM,0.402
same,relative viability,NCI-H2405; first compound 0.005 µM,0.937
same,relative viability,NCI-H2405; first compound 0.01581 µM,0.698
same,relative viability,NCI-H2405; first compound 0.05 µM,0.637
same,relative viability,NCI-H2405; first compound 0.1581 µM,0.483
same,relative viability,NCI-H2405; first compound 0.5 µM,0.294
same,relative viability,NCI-H520; first compound 0.005 µM,0.557
same,relative viability,NCI-H520; first compound 0.01581 µM,0.743
same,relative viability,NCI-H520; first compound 0.05 µM,0.911
same,relative viability,NCI-H520; first compound 0.1581 µM,0.552
same,relative viability,NCI-H520; first compound 0.5 µM,0.47
same,relative viability,NCI-H650; first compound 0.005 µM,0.735
same,relative viability,NCI-H650; first compound 0.01581 µM,0.535
same,relative viability,NCI-H650; first compound 0.05 µM,0.363
same,relative viability,NCI-H650; first compound 0.1581 µM,0.202
same,relative viability,NCI-H650; first compound 0.5 µM,0.195
same,relative viability,NCI-H838; first compound 0.005 µM,0.926
same,relative viability,NCI-H838; first compound 0.01581 µM,0.937
same,relative viability,NCI-H838; first compound 0.05 µM,0.767
same,relative viability,NCI-H838; first compound 0.1581 µM,0.288
same,relative viability,NCI-H838; first compound 0.5 µM,0.213
same,relative viability,SK-MES-1; first compound 0.005 µM,0.416
same,relative viability,SK-MES-1; first compound 0.01581 µM,0.396
same,relative viability,SK-MES-1; first compound 0.05 µM,0.328
same,relative viability,SK-MES-1; first compound 0.1581 µM,0.228
same,relative viability,SK-MES-1; first compound 0.5 µM,0.196
